Laboratory results published in US10961215B2, “N-aryl and N-heteroaryl piperidine derivatives as liver X receptor beta agonists, compositions, and their use” (Merck Sharp & Dohme Corp., priority 2016, dated 2021).

Columns and labels:
[1] = molecular target: T1, GST tagged LXRbeta LBD (ligand binding domain) (Homo sapiens, UniProt P55055); experiment: LanthaScreen TR-FRET Liver X Receptor Coactivator Assay, LXR beta-LBD (co-activator recruitment; IP and % Emax relative to T0901317); format: biochemical; conditions: for EC50: Inflection Point of co-activator recruitment, LXR beta-LBD, TR-FRET; for Emax: efficacy at max dose in relation to reference T0901317, LXR beta-LBD, read-out: LXR beta actiivty at max dose (%)
T1 construct: purchased Invitrogen pv4658.pps
T1 sequence (P55055 222-460 limits assumed): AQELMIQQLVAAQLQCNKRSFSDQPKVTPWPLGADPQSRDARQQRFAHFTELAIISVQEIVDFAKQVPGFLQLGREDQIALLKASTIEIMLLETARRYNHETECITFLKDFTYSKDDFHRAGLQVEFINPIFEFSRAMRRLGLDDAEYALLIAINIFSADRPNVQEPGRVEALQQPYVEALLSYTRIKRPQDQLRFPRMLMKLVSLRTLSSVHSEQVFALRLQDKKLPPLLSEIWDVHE
How it was run: (§1)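 Readout is time-resolved FRET between a terbium anti-GST antibody bound to the tagged LBD and a fluorescein-labelled coactivator peptide recruited on ligand binding. Samples are incubated at room temperature before reading, and efficacy is expressed against T0901317.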

[2] = molecular target: T2, GST tagged LXRalpha LBD (ligand binding domain) (Homo sapiens, UniProt Q13133); experiment: LanthaScreen TR-FRET Liver X Receptor Coactivator Assay, LXR alpha-LBD (co-activator recruitment; IP and % Emax relative to T0901317); format: biochemical; conditions: for Emax: efficacy at max dose in relation to reference T0901317, LXR alpha-LBD, read-out: LXR alpha actiivty at max dose (%)
T2 construct: purchased Invitrogen pv4655
T2 sequence (Q13133 209-447 limits assumed): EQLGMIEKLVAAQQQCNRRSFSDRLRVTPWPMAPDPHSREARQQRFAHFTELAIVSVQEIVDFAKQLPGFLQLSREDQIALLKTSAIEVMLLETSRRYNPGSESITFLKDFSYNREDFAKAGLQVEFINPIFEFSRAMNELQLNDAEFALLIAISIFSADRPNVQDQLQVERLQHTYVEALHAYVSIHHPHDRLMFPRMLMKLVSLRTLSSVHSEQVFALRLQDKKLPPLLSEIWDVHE
How it was run: as §1

[3] = Inflection Point of co-activator recruitment, LXR alpha-LBD, TR-FRET

EC50 [1] [nM]	Emax [1] [%]	EC50 [2, 3] [nM]	Emax [2] [%]	LXR alpha IP (nM) [2, 3]	Structure (SMILES)
342	54	4090	10	–	CN(C)C(=O)c1ccc(N2CCC3(CC2)CC3CCN(C)C(=O)[C@@](O)(c2ccccc2)C(F)(F)F)cc1Cl (stereo partly drawn) [Example 7-1, 2-chloro-N,N-dimethyl-4-(1-(2-((S)-3,3,3-trifluoro-2-hydroxy-N-methyl-2-phenylpropanamido)ethyl)-6-azaspiro[2.5]octan-6-yl)benzamide]
14	73	534	44	–	CN(C)C(=O)c1ccc(N2CCC3(CC2)CC3CCN(C)C(=O)[C@](O)(c2ccccc2)C(F)(F)F)cc1Cl (stereo partly drawn) [Example 7-2, 2-chloro-N,N-dimethyl-4-(1-(2-((R)-3,3,3-trifluoro-2-hydroxy-N-methyl-2-phenylpropanamido)ethyl)-6-azaspiro[2.5]octan-6-yl)benzamide]
32	61	601	24	–	CN(C)C(=O)c1ccc(N2CCC3(CC2)C[C@@H]3CCN(C)C(=O)[C@](O)(c2cccc(OC3CC3)c2)C(F)(F)F)cc1Cl [Example 7-3, 2-chloro-4-((R)-1-(2-((R)-2-(3-cyclopropoxyphenyl)-3,3,3-trifluoro-2-hydroxy-N-methylpropanamido)ethyl)-6-azaspiro[2.5]octan-6-yl)-N,N-dimethylbenzamide]
11	68	381	55	–	CN(C)C(=O)c1ccc(N2CCC3(CC2)C[C@@H]3CCN(C)C(=O)[C@](O)(c2ccccc2)C(F)(F)F)cc1Cl [Example 7-5, 2-chloro-N,N-dimethyl-4-((R)-1-(2-((R)-3,3,3-trifluoro-2-hydroxy-N-methyl-2-phenylpropanamido)ethyl)-6-azaspiro[2.5]octan-6-yl)benzamide]
21	76	439	33	–	COc1cccc([C@@](O)(C(=O)N(C)CC[C@H]2CC23CCN(c2ccc(C(=O)N(C)C)c(Cl)c2)CC3)C(F)(F)F)c1 [Example 7-6, 2-chloro-N,N-dimethyl-4-((R)-1-(2-((R)-3,3,3-trifluoro-2-hydroxy-2-(3-methoxyphenyl)-N-methylpropanamido)ethyl)-6-azaspiro[2.5]octan-6-yl)benzamide]
81	60	1150	42	–	CN(CC[C@H]1CC12CCN(c1ccc(C(=O)NC3CC3)c(Cl)c1)CC2)C(=O)[C@](O)(c1ccccc1)C(F)(F)F [Example 7-11, 2-chloro-N-cyclopropyl-4-((R)-1-(2-((R)-3,3,3-trifluoro-2-hydroxy-N-methyl-2-phenylpropanamido)ethyl)-6-azaspiro[2.5]octan-6-yl)benzamide]
79	64	765	47	–	CC(C)NC(=O)c1ccc(N2CCC3(CC2)C[C@@H]3CCN(C)C(=O)[C@](O)(c2ccccc2)C(F)(F)F)cc1Cl [Example 7-12, 2-chloro-N-isopropyl-4-((R)-1-(2-((R)-3,3,3-trifluoro-2-hydroxy-N-methyl-2-phenylpropanamido)ethyl)-6-azaspiro[2.5]octan-6-yl)benzamide]
14	55	158	32	–	CC(C)N(C)C(=O)c1ccc(N2CCC3(CC2)C[C@@H]3CCN(C)C(=O)[C@](O)(c2ccccc2)C(F)(F)F)cc1Cl [Example 7-13, 2-chloro-N-isopropyl-N-methyl-4-((R)-1-(2-((R)-3,3,3-trifluoro-2-hydroxy-N-methyl-2-phenylpropanamido)ethyl)-6-azaspiro[2.5]octan-6-yl)benzamide]

More lines, now with the values behind:

Structure (SMILES)	EC50 [1] [nM]	Emax [1] [%]	EC50 [2, 3] [nM]	Emax [2] [%]	LXR alpha IP (nM) [2, 3]
COc1cccc([C@@](O)(C(=O)N[C@H](C)CCC2CCN(c3ccc(C(=O)N(C)C)c(Cl)n3)CC2)C(F)(F)F)c1 [Example 6-2, 2-chloro-N,N-dimethyl-6-(4-((R)-3-((R)-3,3,3-trifluoro-2-hydroxy-2-(3-methoxyphenyl)propanamido)butyl)piperidin-1-yl)nicotinamide]	98	116	2440	29	–
CNC(=O)c1ccc(N2CCC3(CC2)C[C@@H]3CCN(C)C(=O)[C@](O)(c2cccc(OC)c2)C(F)(F)F)cc1Cl [Example 7-8, 2-chloro-N-methyl-4-((R)-1-(2-((R)-3,3,3-trifluoro-2-hydroxy-2-(3-methoxyphenyl)-N-methylpropanamido)ethyl)-6-azaspiro[2.5]octan-6-yl)benzamide]	82	56	1270	33	–
COc1cccc([C@@](O)(C(=O)N(C)CC[C@H]2CC23CCN(c2ccc(C(=O)NC4CC4)c(Cl)c2)CC3)C(F)(F)F)c1 [Example 7-9, 2-chloro-N-cyclopropyl-4-((R)-1-(2-((R)-3,3,3-trifluoro-2-hydroxy-2-(3-methoxyphenyl)-N-methylpropanamido)ethyl)-6-azaspiro[2.5]octan-6-yl)benzamide]	109	52	775	25	–
COc1cccc([C@@](O)(C(=O)N(C)CC[C@H]2CC23CCN(c2ccc(C(=O)NC(C)C)c(Cl)c2)CC3)C(F)(F)F)c1 [Example 7-10, 2-chloro-N-isopropyl-4-((R)-1-(2-((R)-3,3,3-trifluoro-2-hydroxy-2-(3-methoxyphenyl)-N-methylpropanamido)ethyl)-6-azaspiro[2.5]octan-6-yl)benzamide]	100	58	1060	35	–
COc1cccc([C@@](O)(C(=O)N(C)CC[C@H]2CC23CCN(c2ccc(C(=O)N(C)C(C)C)c(Cl)c2)CC3)C(F)(F)F)c1 [Example 7-14, 2-chloro-N-isopropyl-N-methyl-4-((R)-1-(2-((R)-3,3,3-trifluoro-2-hydroxy-2-(3-methoxyphenyl)-N-methylpropanamido)ethyl)-6-azaspiro[2.5]octan-6-yl)benzamide]	18	55	–	6	No IP
COc1cccc([C@@](O)(C(=O)N(C)CC[C@H]2CC23CCN(c2ccc(C(=O)N(C)C)c(Cl)n2)CC3)C(F)(F)F)c1 [Example 7-15, 2-chloro-N,N-dimethyl-6-((R)-1-(2-((R)-3,3,3-trifluoro-2-hydroxy-2-(3-methoxyphenyl)-N-methylpropanamido)ethyl)-6-azaspiro[2.5]octan-6-yl)nicotinamide]	12	58	680	37	–
COc1cccc([C@@](O)(C(=O)N(C)CC[C@H]2CC23CCN(c2ccc(C(=O)NC4CC4)c(Cl)n2)CC3)C(F)(F)F)c1 [Example 7-16, 2-chloro-N-cyclopropyl-6-((R)-1-(2-((R)-3,3,3-trifluoro-2-hydroxy-2-(3-methoxyphenyl)-N-methylpropanamido)ethyl)-6-azaspiro[2.5]octan-6-yl)nicotinamide]	101	54	1790	40	–
COc1cccc([C@@](O)(C(=O)N(C)CC[C@H]2CC23CCN(c2ccc(C(=O)N(C)C(C)C)c(Cl)n2)CC3)C(F)(F)F)c1 [Example 7-17, 2-chloro-N-isopropyl-N-methyl-6-((R)-1-(2-((R)-3,3,3-trifluoro-2-hydroxy-2-(3-methoxyphenyl)-N-methylpropanamido)ethyl)-6-azaspiro[2.5]octan-6-yl)nicotinamide]	12	59	160	36	–
